One experiment deals with BT-474. The experiment in a line: Proliferation inhibition assay in vitro, BT-474 (CellTiter-Glo). The format is cell-based. Conditions: Homo sapiens, 72 hours, read-out: IC50(nM) cell BT-474. The method, boiled down:
(§1)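 Cells were seeded at 8.8×10^4 cells/mL for BT-474 or 6.6×10^4 cells/mL for N87 and grown overnight. Compound was added at 9 concentrations in duplicate for 72 h at 37 °C, 5% CO2. Viability was measured by CellTiter-Glo.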
(In ATP-based viability assays light output follows the ATP content of the culture.)

The next experiment has as its target EGFR kinase (Homo sapiens, UniProt P00533). The experiment in a line: Enzymatic experiment on EGFR (HTRF kinEASE-TK). The note with it: ATP 1.65 μM; read-out: Kinase IC50 (nM) in vitro EGFR. The format is biochemical. The gist of the method:
(§2)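 HTRF kinEASE-TK with biotinylated TK substrate in HEPES pH 7.0 buffer containing MnCl2, MgCl2 and DTT; ErbB2 at 0.06 ng/μl with 4 μM ATP, EGFR at 0.06 units/μl with 1.65 μM ATP, 30 min at room temperature after 5 min enzyme/substrate–compound preincubation. Ten-point 3-fold dilutions; Eu antibody/SA-XL665 detection, 665/620 ratio.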

A further experiment has as its target ErbB2 kinase (Homo sapiens, UniProt P04626). The experiment in a line: Enzymatic experiment on ErbB2 (HTRF kinEASE-TK). Type of experiment: biochemical. The note with it: ATP 4 μM; read-out: Kinase IC50 (nM) in vitro ErbB2. The method, boiled down:
as §2
A general note: TR-FRET usually uses a lanthanide donor and a delayed reading to cut background.

A further experiment relates to N87. The experiment in a line: Proliferation inhibition assay in vitro, N87 (CellTiter-Glo). Type of experiment: cell-based. Conditions: Homo sapiens; 72 hours; read-out: IC50(nM) cell N87. The gist of the method:
as §1

Molecules are shown by their SMILES.

ErbB2 kinase, sequence (P04626 23-1255): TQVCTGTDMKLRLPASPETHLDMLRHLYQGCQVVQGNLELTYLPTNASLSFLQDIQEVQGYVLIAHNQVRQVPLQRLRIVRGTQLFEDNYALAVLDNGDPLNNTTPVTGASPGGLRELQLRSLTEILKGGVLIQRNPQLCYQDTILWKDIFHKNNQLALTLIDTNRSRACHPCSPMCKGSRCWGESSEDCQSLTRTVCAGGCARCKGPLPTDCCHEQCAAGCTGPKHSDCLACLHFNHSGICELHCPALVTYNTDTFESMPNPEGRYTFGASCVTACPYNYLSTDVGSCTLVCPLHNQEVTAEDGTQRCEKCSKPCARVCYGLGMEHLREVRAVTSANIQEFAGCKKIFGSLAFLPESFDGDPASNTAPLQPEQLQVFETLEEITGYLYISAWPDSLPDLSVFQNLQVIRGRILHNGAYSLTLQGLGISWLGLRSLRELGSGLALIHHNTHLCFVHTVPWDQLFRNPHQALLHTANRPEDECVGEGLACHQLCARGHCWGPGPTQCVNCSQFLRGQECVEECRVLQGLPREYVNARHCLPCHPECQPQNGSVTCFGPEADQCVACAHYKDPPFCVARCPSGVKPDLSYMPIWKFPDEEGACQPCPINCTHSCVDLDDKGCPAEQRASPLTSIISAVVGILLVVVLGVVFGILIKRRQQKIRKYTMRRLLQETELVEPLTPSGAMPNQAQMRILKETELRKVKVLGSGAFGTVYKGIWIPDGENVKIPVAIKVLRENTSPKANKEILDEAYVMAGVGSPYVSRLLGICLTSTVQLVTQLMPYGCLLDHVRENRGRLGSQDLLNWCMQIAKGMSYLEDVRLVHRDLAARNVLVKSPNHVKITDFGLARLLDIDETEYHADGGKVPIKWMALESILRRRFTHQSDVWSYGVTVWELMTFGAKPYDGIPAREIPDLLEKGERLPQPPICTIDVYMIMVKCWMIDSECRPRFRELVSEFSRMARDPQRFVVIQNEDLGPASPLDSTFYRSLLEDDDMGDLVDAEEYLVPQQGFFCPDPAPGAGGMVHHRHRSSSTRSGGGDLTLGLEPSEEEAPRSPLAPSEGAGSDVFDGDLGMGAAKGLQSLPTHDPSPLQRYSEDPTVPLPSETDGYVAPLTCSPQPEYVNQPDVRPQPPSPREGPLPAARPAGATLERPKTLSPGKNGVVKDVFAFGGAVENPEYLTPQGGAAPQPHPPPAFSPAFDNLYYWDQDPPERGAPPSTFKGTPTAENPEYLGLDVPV
EGFR kinase, sequence (P00533 25-1210): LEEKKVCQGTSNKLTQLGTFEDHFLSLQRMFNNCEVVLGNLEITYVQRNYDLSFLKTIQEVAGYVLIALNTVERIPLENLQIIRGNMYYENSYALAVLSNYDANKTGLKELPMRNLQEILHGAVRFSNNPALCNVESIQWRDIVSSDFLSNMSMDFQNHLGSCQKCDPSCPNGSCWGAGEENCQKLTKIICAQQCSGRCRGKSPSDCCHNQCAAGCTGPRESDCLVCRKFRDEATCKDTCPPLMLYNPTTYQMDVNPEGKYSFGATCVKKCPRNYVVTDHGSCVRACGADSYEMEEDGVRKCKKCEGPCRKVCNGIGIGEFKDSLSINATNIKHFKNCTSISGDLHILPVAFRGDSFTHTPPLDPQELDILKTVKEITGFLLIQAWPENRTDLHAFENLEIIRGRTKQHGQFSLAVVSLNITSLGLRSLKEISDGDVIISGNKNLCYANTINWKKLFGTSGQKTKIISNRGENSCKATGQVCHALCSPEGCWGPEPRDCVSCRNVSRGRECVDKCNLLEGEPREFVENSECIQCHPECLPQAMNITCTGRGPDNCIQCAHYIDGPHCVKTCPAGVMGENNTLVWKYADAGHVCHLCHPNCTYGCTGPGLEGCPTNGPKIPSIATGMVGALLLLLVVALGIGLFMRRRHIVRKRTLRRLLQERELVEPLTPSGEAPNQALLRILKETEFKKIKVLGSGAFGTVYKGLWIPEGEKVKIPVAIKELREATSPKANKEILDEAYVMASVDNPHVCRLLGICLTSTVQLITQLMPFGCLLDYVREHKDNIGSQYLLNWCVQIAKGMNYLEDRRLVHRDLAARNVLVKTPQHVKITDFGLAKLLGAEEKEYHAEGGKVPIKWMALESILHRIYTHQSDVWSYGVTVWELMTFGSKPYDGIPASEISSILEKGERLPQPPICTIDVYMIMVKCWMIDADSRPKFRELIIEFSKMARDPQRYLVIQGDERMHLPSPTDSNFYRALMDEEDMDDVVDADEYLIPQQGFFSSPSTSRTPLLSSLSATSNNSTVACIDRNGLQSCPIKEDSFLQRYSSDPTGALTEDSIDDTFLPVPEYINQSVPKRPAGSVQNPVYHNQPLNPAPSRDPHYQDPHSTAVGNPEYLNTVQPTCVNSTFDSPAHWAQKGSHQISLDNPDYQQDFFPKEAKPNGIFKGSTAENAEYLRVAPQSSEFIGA

For orientation: IC50 means the concentration that inhibits the measured activity by half. Turning to `CC1(C)COC(Nc2ccc3ncnc(Nc4ccc(Oc5cc6nncn6cn5)c(C(F)(F)F)c4)c3c2)=N1` [Embodiment 81, N^4-(3-trifluoromethyl-4-([1,2,4]triazolo[4,3-c]pyrimidin-7-yloxy)phenyl)-N^6-(4,4-dimethyl-4,5-dihydrooxazol-2-yl)quinazolin-4,6-diamine], the IC50 with BT-474 is 1270 nM; on EGFR kinase, 51.9 nM; at ErbB2 kinase it was 16.6 nM; in the experiment on N87, 749 nM.

Take `Cc1cc(Nc2ncnc3ccc(NC(=O)CCl)cc23)ccc1Oc1cc2nncn2cn1` [Embodiment 82, N-(4-((4-([1,2,4]triazolo[4,3-c]pyrimidin-7-yloxy)-3-methylphenyl)amino)quinazolin-6-yl)-2-chloroacetamide]: the IC50 with BT-474 was determined as 7.1 nM; at EGFR kinase it was 2.2 nM; at ErbB2 kinase it was 1.1 nM; with N87, 5 nM.

Take `Cc1cc(Nc2ncnc3ccc(-n4cccc4)cc23)ccc1Oc1cc2nncn2cn1` [Embodiment 83, N-(4-([1,2,4]triazolo[4,3-c]pyrimidin-7-yloxy)-3-methylphenyl)-6-(1H-pyrrol-1-yl)-quinazolin-4-amine]: the IC50 came to 72.7 nM in the experiment with BT-474, 36.4 nM at EGFR kinase, 2.3 nM at ErbB2 kinase and 104 nM with N87.

Take `C=C(C)C(=O)Nc1ccc2ncnc(Nc3ccc(Oc4cc5nncn5cn4)c(C)c3)c2c1` [Embodiment 84, N-(4-((4-([1,2,4]triazolo[4,3-c]pyrimidin-7-yloxy)-3-methylphenyl)amino)quinazolin-6-yl)-methacrylamide]: the IC50 was found to be 21.8 nM in the experiment on BT-474, 89.4 nM on EGFR kinase, 3 nM on ErbB2 kinase and 31.1 nM with N87.

As for `Cc1cc(Nc2ncnc3ccc(-n4ccc(CNCCS(C)(=O)=O)c4)cc23)ccc1Oc1cc2nncn2cn1` [Embodiment 86, N-(4-([1,2,4]triazolo[4,3-c]pyrimidin-7-yloxy)-3-methylphenyl)-6-(3-(((2-(methylsulfonyl)ethyl)amino)methyl)-1H-pyrrol-1-yl)quinazolin-4-amine], the 50% inhibitory concentration (IC50) stood at 33.8 nM in the experiment on BT-474, 7.7 nM on EGFR kinase, 3.1 nM at ErbB2 kinase and 160 nM in the experiment with N87.

In the case of `Cc1cc(Nc2ncnc3ccc(NC4=NC5(CCCC5)CO4)cc23)ccc1Oc1cc2nncn2cn1` [Embodiment 87], the IC50 in the experiment on BT-474 came out at 15.3 nM; on EGFR kinase, 6.5 nM; at ErbB2 kinase it was 1.9 nM; in the experiment on N87, 25.3 nM.

As to `C=CC(=O)N1CCC(Oc2cc3c(Nc4ccc(Oc5cc6nncn6cn5)c(F)c4)ncnc3cc2OC)CC1` [Embodiment 88, 1-(4-((4-((4-([1,2,4]triazolo[4,3-c]pyrimidin-7-yloxy)-3-fluorophenyl)amino)-7-methoxyquinazolin-6-yl)oxy)piperidin-1-yl)prop-2-en-1-one], the IC50 in the experiment with BT-474 was 6.3 nM; at EGFR kinase, 1.9 nM; at ErbB2 kinase, 1.13 nM; in the experiment on N87, 5.2 nM.

Take `Cc1cc(Nc2ncnc3ccc(NC4=NCC(C)(C)O4)cc23)ccc1Oc1cc2nncn2cn1` [Embodiment 90, N^4-(4-([1,2,4]triazolo[4,3-c]pyrimidin-7-yloxy)-3-methylphenyl)-N^6-(5,5-dimethyl-4,5-dihydrooxazol-2-yl)quinazolin-4,6-diamine]: the IC50 in the experiment with BT-474 is 185 nM; at EGFR kinase it was 494 nM; on ErbB2 kinase, 11.1 nM; in the experiment on N87, 271 nM.

Turning to `Cc1cc(Nc2ncnc3ccc(NC4=N[C@@H](C(C)C)CO4)cc23)ccc1Oc1cc2nncn2cn1` [Embodiment 91, (S)—N^4-(4-([1,2,4]triazolo[4,3-c]pyrimidin-7-yloxy)-3-methylphenyl)-N^6-(4-isopropyl-4,5-dihydrooxazol-2-yl)quinazolin-4,6-diamine], the concentration for half-maximal inhibition (IC50) came out at 38.8 nM in the experiment with BT-474, 26.9 nM at EGFR kinase, 2.76 nM at ErbB2 kinase and 76.8 nM in the experiment with N87.

As for `C=CC(=O)N1CCC(Oc2cc3c(Nc4ccc(Oc5cc6nncn6cn5)c(Cl)c4)ncnc3cc2OC)CC1` [Embodiment 92, 1-(4-((4-((4-([1,2,4]triazolo[4,3-c]pyrimidin-7-yloxy)-3-chlorophenyl)amino)-7-methoxyquinazolin-6-yl)oxy)piperidin-1-yl)prop-2-en-1-one], the concentration for half-maximal inhibition (IC50) in the experiment on BT-474 was determined as 2.2 nM; on EGFR kinase, 0.7 nM; on ErbB2 kinase, 0.44 nM; in the experiment with N87, 3.4 nM.

With `Cc1cc(Nc2ncnc3ccc(NC(=O)/C=C/[C@H]4CCCN4C)cc23)ccc1Oc1cc2nncn2cn1` [Embodiment 94, (R,E)-N-(4-((4-([1,2,4]triazolo[4,3-c]pyrimidin-7-yloxy)-3-methylphenyl)amino)quinazolin-6-yl)-3-(1-methylpyrrolidin-2-yl)acrylamide], the IC50 was 4.8 nM in the experiment on BT-474, 3.16 nM on EGFR kinase, 2.99 nM at ErbB2 kinase and 4.7 nM in the experiment on N87.

In the case of `Cc1cc(Nc2ncnc3ccc(NC(=O)/C=C/[C@@H]4CCCN4)cc23)ccc1Oc1cc2nncn2cn1` [Embodiment 96, (S,E)-N-(4-((4-([1,2,4]triazolo[4,3-c]pyrimidin-7-yloxy)-3-methylphenyl)amino)quinazolin-6-yl)-3-(pyrrolidin-2-yl)acrylamide], the IC50 came to 55.9 nM with BT-474, 3.79 nM on EGFR kinase, 3.43 nM on ErbB2 kinase and 93.5 nM in the experiment with N87.

Consider `Cc1cc(Nc2ncnc3ccc(NC(=O)/C=C/[C@@H]4CCCN4C)cc23)ccc1Oc1cc2nncn2cn1` [Embodiment 97, (S,E)-N-(4-((4-([1,2,4]triazolo[4,3-c]pyrimidin-7-yloxy)-3-methylphenyl)amino)quinazolin-6-yl)-3-(1-methylpyrrolidin-2-yl)acrylamide], for which the 50% inhibitory concentration (IC50) in the experiment with BT-474 turned out to be 6.4 nM; on EGFR kinase, 11.4 nM; at ErbB2 kinase it was 4.84 nM; in the experiment on N87, 10 nM.

As to `CN1CCC[C@@H]1/C=C/C(=O)Nc1ccc2ncnc(Nc3ccc(Oc4cc5nncn5cn4)c(Cl)c3)c2c1` [Embodiment 98, (R,E)-N-(4-((4-([1,2,4]triazolo[4,3-c]pyrimidin-7-yloxy)-3-chlorophenyl)amino)quinazolin-6-yl)-3-(1-methylpyrrolidin-2-yl)acrylamide], the IC50 in the experiment with BT-474 turned out to be 3 nM; on EGFR kinase it was 1.6 nM; at ErbB2 kinase, 1.78 nM; in the experiment on N87, 2.5 nM.

Turning to `Cc1cc(Nc2ncnc3ccc(-c4ccc(CN(C)CCS(C)(=O)=O)o4)cc23)ccc1Oc1cc2nncn2cn1` [Embodiment 105], the IC50 was 22.9 nM in the experiment on BT-474, 26 nM on EGFR kinase, 1.2 nM at ErbB2 kinase and 17.3 nM in the experiment on N87.

As to `Cc1cc(Nc2ncnc3ccc(NC(=S)NC(C)(C)CO)cc23)ccc1Oc1cc2nncn2cn1` [Embodiment 106, 1-(4-((4-([1,2,4]triazolo[4,3-c]pyrimidin-7-yloxy)-3-methylphenyl)amino)quinazolin-6-yl)-3-(1-hydroxy-2-methylpropan-2-yl)thiourea], the half-inhibitory concentration (IC50) in the experiment on BT-474 was 264 nM; on EGFR kinase it was 445 nM; on ErbB2 kinase, 21.5 nM; in the experiment with N87 it was 933 nM.

On to `Cc1cc(Nc2ncnc3ccc(-c4cccc(NCCS(C)(=O)=O)c4)cc23)ccc1Oc1cc2nncn2cn1` [Embodiment 115], for which the IC50 came out at 58.6 nM with BT-474, 75.9 nM on EGFR kinase, 5.91 nM on ErbB2 kinase and 84 nM in the experiment with N87.

Take `Cc1cc(Nc2ncnc3ccc(-c4cccc(N5CCS(=O)(=O)CC5)c4)cc23)ccc1Oc1cc2nncn2cn1` [Embodiment 116, 4-(3-(4-((4-([1,2,4]triazolo[4,3-c]pyrimidin-7-yloxy)-3-methylphenyl)amino)quinazolin-6-yl)phenyl)thiomorpholin-1,1-dioxide]: the IC50 with BT-474 was 12.6 nM; on EGFR kinase, 11.7 nM; at ErbB2 kinase it was 1.3 nM; in the experiment with N87, 18.3 nM.

With `C=CC(=O)N1CC=C(c2ccc3ncnc(Nc4ccc(Oc5cc6nncn6cn5)c(C)c4)c3c2)CC1` [Embodiment 117, 1-(4-(4-((4-([1,2,4]triazolo[4,3-c]pyrimidin-7-yloxy)-3-methylphenyl)amino)quinazolin-6-yl)-5,6-dihydropyridin-1(2H)-yl)prop-2-en-1-one], the IC50 was determined as 3.1 nM with BT-474, 100 nM at EGFR kinase, 3.6 nM on ErbB2 kinase and 2.1 nM with N87.

As for `Cc1cc(Nc2ncnc3ccc(-c4ccc(N)nn4)cc23)ccc1Oc1cc2nncn2cn1` [Embodiment 118, N-(4-([1,2,4]triazolo[4,3-c]pyrimidin-7-yloxy)-3-methylphenyl)-6-(6-aminopyridazin-3-yl)quinazolin-4-amine], the IC50 in the experiment with BT-474 stood at 73.4 nM; on EGFR kinase it was 28.4 nM; on ErbB2 kinase it was 8.59 nM; in the experiment with N87, 389 nM.

With `C=CC(=O)N1CCC=C(c2ccc3ncnc(Nc4ccc(Oc5cc6nncn6cn5)c(C)c4)c3c2)C1` [Embodiment 120, 1-(5-(4-((4-([1,2,4]triazolo[4,3-c]pyrimidin-7-yloxy)-3-methylphenyl)amino)quinazolin-6-yl)-3,6-dihydropyridin-1(2H)-yl)prop-2-en-1-one], the IC50 with BT-474 came to 5.85 nM; on EGFR kinase, 7.41 nM; at ErbB2 kinase, 1.31 nM; with N87, 2.68 nM.

These data come from patent US10828305B2 (SHANGHAI PHARMACEUTICALS HOLDING CO., LTD., priority 2016, dated 2020).
